Consider two compounds from patent publication US20250281433A1, “NOVEL DERIVATIVE COMPOUND HAVING BIPHENYL GROUP INTRODUCED INTO AMINO-ALKANOIC ACID AND ANTI-INFLAMMATORY COMPOSITION COMPRISING SAME” (AMTIXBIO CO., LTD., priority 2020, published 2025).

SMILES strings stand for the structures.

The subject of experiment [1] is psoriasis symptoms induced by Aldara cream in BALB/c mice. Put plainly: Aldara cream-induced mouse psoriasis model: evaluation of scratching. It is filed as in vivo. As to conditions: 8th day; topical; Compound 51 1%, Betamethasone 0.05%; versus Veh. As to the method:
(§1) After dissolving the test substance (Compound 51 of the present invention) using DMSO (Dimethyl sulfoxide, Sigma, Cat No. 472301), an appropriate concentration was prepared with PBS (HyClone, Cat No. SH30028.02). The transdermal test substance was prepared by dissolving the test substance in 100% ethanol (Medchem, Cat No. HY-13571). Betamethasone dipropionate (Sigma, Cat No. D1756, Lot No. BCBW7684), a positive control, was dissolved in DMSO, and PEG400 (Sigma, Cat. No. 06855) and 30% ethanol (Daejung, Cat. No. 4023-4100) were added to the mixture obtained above. The same vehicle was used for the negative control in the same way as the positive control specimen preparation.
(§2) BALB/c mice (purchased through JA BIO, 27 males, 8 weeks old) were acclimatized for one week. After the mice were anesthetized with isoflurane 3 days before the application of Aldara cream, the hair on the back (3×3 cm) was removed using a clipper. The remaining hair was completely removed by leaving the hair removal cream for 1 minute. The mice were left for 72 hours to heal the wounds. To induce psoriasis, Aldera Cream (5% Imiquimod, Dong-A ST) 62.5 mg was applied at the same time point (AM 10:00) once/day 7 times, and 150 μl of test substance or positive control was applied from the 4th day at the same time point (PM 14:00) for 4 days. […]

Experiment [2] deals with IL-6 production in RAW264.7 cells. Put plainly: LPS-induced IL-6 production in RAW264.7 cells (ELISA). As to conditions: for avg / 1 well / 2 well / avg (%): Table 2; for avg / 1 well / 2 well: IL-6 production after LPS; for avg: average of wells; for 1 well: replicate well 1; for 2 well: replicate well 2; for avg (%): relative to LPS (100%). Format: cell-based, mouse. The protocol:
The inhibitory effect on induced IL-6 cytokine production was analyzed. RAW264.7 cells (obtained from the Korean Cell Line Bank) were seeded at a density of 5×10^5 cells/well in a 12-well plate and stabilized in a CO2 incubator at 37° C. with 5% carbon dioxide and saturated humidity. After 24 hours of incubation, the compounds of the present invention were prepared in DMEM at concentrations of 0 μg/mL or 8 μg/mL and pre-treated for 30 minutes. Next, lipopolysaccharide (LPS, Sigma-Aldrich, Cat No. L2887) was treated to a concentration of 1 μg/mL to induce an inflammatory response for 24 hours. Subsequently, mouse IL-6 ELISA kit (Labiskoma, Cat No. K0331230P) and mouse TNF-α ELISA kit (Labiskoma, Cat No. K0331186P) were used according to the manufacturer's instructions, and absorbance was measured. FK506 (FK-506 monohydrate, manufacturer: MilliporeSigma, product number: F4679, U.S.A) was used as a control substance.
After inducing inflammation as described in (1) and (2) above, the supernatant was collected, and the quantification of IL-6 in the supernatant was performed using the IL-6 ELISA kit (Mouse IL-6 ELISA Kit, pink-ONE, manufactured by Komabiotech, Product No. K0331230P) according to the manufacturer's instructions. Specifically, the amount of IL-6 in the supernatant was quantified according to the ELISA kit protocol, and the absorbance was measured at OD 450 nm using a microplate reader (Multiskan Sky, manufactured by Thermo Fisher Scientific). […] In Table 1 to Table 3, FIG. 1, and FIG. 2, the relative values of IL-6 generated after pretreatment with the compounds of the present invention were expressed as a percentage relative to the IL-6 production (100%) induced by LPS, TNF-α, or IFN-β treatment.
(ELISA stands for enzyme-linked immunosorbent assay.)

The test system of experiment [3] is psoriasis symptoms induced by Aldara cream in BALB/c mice. Description: Aldara cream-induced mouse psoriasis model: skin lesions / PASI score. Format: in vivo. To be noted: topical 150 μl for 4 days from 4th day, Compound 51 1%, Betamethasone 0.05%, versus Veh. As to the method:
as §1
BALB/c mice (purchased through JA BIO, 27 males, 8 weeks old) were acclimatized for one week. After the mice were anesthetized with isoflurane 3 days before the application of Aldara cream, the hair on the back (3×3 cm) was removed using a clipper. The remaining hair was completely removed by leaving the hair removal cream for 1 minute. The mice were left for 72 hours to heal the wounds. To induce psoriasis, Aldera Cream (5% Imiquimod, Dong-A ST) 62.5 mg was applied at the same time point (AM 10:00) once/day 7 times, and 150 μl of test substance or positive control was applied from the 4th day at the same time point (PM 14:00) for 4 days. The composition of each test group was as follows. a) Con: Normal+excipient application group: 8 animals; b) Veh: Aldara cream+excipient application group: 8 animals; c) Beta: Aldara+Betamethasone 0.05% applied group: 8 animals; and d) Compound 51 1%: Aldara+Compound 51 1% application group: 3 animals. The autopsy proceeded in a non-fasting state, and the dorsal skin was removed from each mouse, rapidly frozen in liquid nitrogen, and stored at −80° C. before for the subsequent experiments.
After taking pictures on the 0th, 4th, and 8th days to measure the skin index values, they were visually observed and recorded to measure the degree of skin lesions on the dorsal area. The condition of psoriasis skin lesions in each group was scored according to the evaluation index (erythema, skin thickness, dead skin cells) as None (0), Weak (1), Moderate (2), Severe (3), Very Severe (4) and set the score, and by summing up the scores of the three items, an evaluation score between a minimum of 0 and a maximum of 12 was calculated. […] After taking pictures in all groups on the 0th, 4th and 8th days, the evaluation indexes (erythema, skin thickness, and dead skin cells) of the psoriasis skin lesions in each group were graphed.

The subject of experiment [4] is psoriasis-related cytokine genes IL-17A, IL-17F, IL-23A (p19), IL-12A (p35), IL-12B (p40), IL-1β. Description: Aldara cream-induced mouse psoriasis model: qRT-PCR of dorsal skin. It is filed as in vivo. To be noted: dorsal skin RNA, normalized to 18s rRNA; topical; Compound 51 1%, Betamethasone 0.05%; versus Veh. The protocol:
as §1, §2

The test system of experiment [5] is interleukin-6 in HaCaT keratinocytes. To be noted: 8 μg/ml, 1 h pre-treatment, TNF-α 100 ng/ml 24 h; compared to the control group FK506. The protocol: (§3) HaCaT keratinocytes, a human skin keratinocyte cell line (obtained from the Korean Cell Line Bank), were seeded in a 12-well plate at a density of 1×10^5 cells per well and cultured for at least 12 hours in a 37° C. humidified incubator containing 5% carbon dioxide and saturated water vapor. After pre-treatment with the compound 77 of the present invention (0 μg/ml or 8 μg/ml) or the immunosuppressant FK506 (FK-506 monohydrate, manufacturer: MilliporeSigma product number: F4679, USA) as a control for 1 hour, TNF-α (Tumor Necrosis Factor-α human, manufacturer: MilliporeSigma) was treated for 24 hours as an inflammatory response inducer at a concentration of 100 ng/ml. Next, the supernatant was obtained and TSLP and IL-6 ELISA (Human TSLP and IL-6 ELISA Kit, pink-ONE, manufacturer: Komabiotech) each was performed. Specifically, the contents of TSLP and IL-6 in the supernatant were quantified according to the protocol of the ELISA kit with the supernatant, and absorbance was measured at a wavelength of 450 nm using a microplate reader (Multiskan Sky, manufacturer: Thermo Fisher Scientific, product number: 51119600DP).

Experiment [6] deals with TSLP in HaCaT keratinocytes. As to conditions: 8 μg/ml, 1 h pre-treatment, TNF-α 100 ng/ml 24 h; compared to the control group FK506. As to the method:
as §3

As to `CCCC(NC)C(=O)NCc1ccc(-c2ccc(Cl)c(Cl)c2)cc1.Cl` (racemic) [Compound 51, (R)/(S)—N-((3′,4′-dichloro-[1,1′-biphenyl]-4-yl)methyl)-2-(methylamino)pentanamide hydrochloride], in experiment [1], the “pruritus (scratching counts, 30 minutes)” value was “tendency to decrease pruritus”. Further, in experiment [2] (compound at 2 μg/ml), the avg is listed as 2615.50, the 1 well was found to be 2815.00, the 2 well was found to be 2416.00 and the “avg (%)” value turned out to be 56.11%. For the same compound, in experiment [2] (compound at 4 μg/ml), the avg is given as 586.95, the 1 well is 669.30, the 2 well was found to be 504.60 and the “avg (%)” value was found to be 12.59%. Further, in experiment [3] (8th day), the “skin lesions (pictures, visual)” value was “visually improved”. In experiment [3] (p<0.001), the “PASI Score” value is reported as “significantly decreased”. Besides, the “psoriasis-related cytokine genes (IL-17A, IL-17F, IL-23A (p19), IL-12A (p35), IL-12B (p40), IL-1β) expression” value in experiment [4] is reported as “significantly reduced”.
For `CCCC(N)C(=O)NCCc1ccc(-c2ccc(C(F)(F)F)cc2)cc1.Cl` (racemic) [Compound 77, (R)/(S)-2-amino-N-(2-(4′-(trifluoromethyl)-[1,1′-biphenyl]-4-yl)ethyl)pentanamide hydrochloride], in experiment [2] (Table 1, LPS 1 μg/mL 24 h, compound 77 at 8 μg/ml, FK506 concentration not given), the “IL-6” value turned out to be 191.20 pg/mL. In addition, the “IL-6 (%)” value in experiment [2] (Table 1, relative to IL-6 production induced by LPS (100%), compound 77 at 8 μg/ml, FK506 concentration not given) is listed as 13.19%. Also, the “Relative amount of IL-6 compared to LPS induction (%)” value in experiment [2] (Table 3, LPS 1 μg/mL 24 h, compounds at 8 μg/mL (FIG. 1), LPS alone = 100%) is 5%. Further, the “amount of interleukin-6” value in experiment [5] is recorded as “significantly reduced”. Besides, the “amount of TSLP” value in experiment [6] is on record as “significantly reduced”.
